Results from PubChem BioAssay (NCI).
Several values for one entry are separate records, joined by “and”; a condition that tells them apart may be missing. Equal entries are not always repeated.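 These data come from cells grown in 96-well plates and exposed to compound for 48 hours at five concentrations. GI50 = concentration required for 50% inhibition of growth. At the TGI there is no net growth.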

What was measured:
Assay in all cases: inhibition of tumour cell growth, NCI panel, 48 h
[1] = test system: HCT-116 colon
[2] = test system: OVCAR-4 ovarian
[3] = test system: 786-0 renal
[4] = test system: UACC-62 melanoma
[5] = test system: SNB-75 CNS
[6] = test system: K-562 leukemia
[7] = test system: SK-MEL-28 melanoma
[8] = test system: HL-60(TB) leukemia
[9] = test system: MALME-3M melanoma
[10] = test system: OVCAR-5 ovarian
[11] = test system: COLO 205 colon

Row | Compound | TGI [1] [µM] | TGI [2] | TGI [3] | TGI [4] | TGI [5] | TGI [6] | TGI [7] | TGI [8] | TGI [9] | TGI [10] [µM] | TGI [11] | GI50 [4] | GI50 [5] | GI50 [8] | GI50 [10] | GI50 [1] [µM]
1 | O=[S@]1c2ccc3ccccc3c2N[C@@H]2[C@H]1[C@H]1C=C[C@@H]2C1 | > 100 | > 100 µM | > 100 µM | > 100 µM | 73.4 µM | > 100 µM | > 100 µM | 63 µM | > 100 µM | > 100 | > 100 µM |  |  |  |  | 
2 | CC1=CC[C@@]2(C)CC[C@](O)(C(C)C)C2C(OC(=O)c2ccccc2)C1 (some centres not stated) | 31.8 | 62.2 µM | 33.4 µM |  | 35.8 µM | 47.8 µM | 58.4 µM | 82.2 µM | 41.6 µM | 30.1 | 43 µM |  |  |  |  | 
3 | COc1c(C(=O)NCCN(CCNC(=O)c2cccc(-c3cccc(C(=O)N(C)C)c3OC)c2OC)CCNC(=O)c2cccc(-c3cccc(C(=O)N(C)C)c3OC)c2OC)cccc1-c1cccc(C(=O)N(C)C)c1OC | 41.4 | 84 µM | > 100 µM | 67.2 µM | 83.8 µM | 65 µM | 41.5 µM | 69.5 µM | 39.6 µM | > 100 | 48.6 µM |  |  |  |  | 
4 | CCN(CC)CCN(C)c1ccc(CO)c2c1C(=O)c1ccccc1S2=O (configuration not stated) | 3.97 | 11.7 µM | 3.22 µM | 17.6 µM | 31.5 µM | > 20.3 µM | 10.2 µM | 51.8 µM | 27.2 µM | 24.5 | 21.6 µM |  |  |  |  | 
5 | COc1ccc2c(c1)CCCN1CCc3ccccc3C21 (configuration not stated) | 72.1 | > 100 µM | 69.9 µM | 83.1 µM | 66.1 µM | > 100 µM | > 100 µM | 43.3 µM | > 100 µM | > 100 | 59.3 µM |  |  |  |  | 
6 | O=C1CCc2ccc(O)c(c2)Oc2ccc(cc2)C(Sc2ccccc2)CCO1 (configuration not stated) | 29.8 | 26.1 µM | 29.6 µM | 32.5 µM | 28.4 µM | 40 µM | 31.6 µM | > 100 µM | 27.9 µM | 35.3 | 33.1 µM |  |  |  |  | 
7 | CCOC(=O)CC(NC(=O)c1[nH]cnc1/N=N/N(C)C)C(=O)OCC (configuration not stated) | > 100 | > 100 µM | > 100 µM | > 100 µM | > 100 µM | > 100 µM | > 100 µM | > 100 µM | > 100 µM | > 100 | > 100 µM |  |  |  |  | 
8 | CC(=O)NCC1OC2COC(c3ccccc3)OC2C(NC(=O)c2ccccc2)C1OC(=O)c1ccccc1 (configuration not stated) | > 100 | > 100 µM | > 100 µM | > 100 µM | > 100 µM | > 100 µM | > 100 µM | > 100 µM | > 100 µM | > 100 | > 100 µM |  |  |  |  | 
9 | CCOP(=O)(OCC)C(NC(=O)C(C(F)(F)F)C(F)(F)F)c1ccccc1 (configuration not stated) | > 100 | > 100 µM | > 100 µM | > 100 µM | > 100 µM | > 100 µM | > 100 µM | 67.9 µM | > 100 µM | > 100 | > 100 µM |  |  |  |  | 
10 | CCCSc1ccc2[nH]c(N3C(=O)/C(=C/c4ccc(SC)cc4)N=C3c3ccccc3)cc2c1 | > 50 | > 50 µM | > 50 µM | > 50 µM | > 50 µM | 5.43 µM | > 50 µM | 24.8 µM | > 50 µM | > 50 | > 43.2 µM |  |  |  |  | 
11 | CC(=O)c1ccc2c(c1)CC1(C2)Cc2cc3c(c(C(=O)O)c2C1)CCC3 (configuration not stated) | > 100 | > 100 µM | > 100 µM | > 100 µM | > 100 µM | > 100 µM | > 100 µM | > 100 µM | > 100 µM | > 100 | > 100 µM |  |  |  |  | 
12 | CC1=C(O)c2ccccc2C(=O)C1=O | > 100 | > 100 µM | > 100 µM | > 100 µM | > 100 µM | > 100 µM | > 100 µM | > 100 µM | > 100 µM | > 100 | > 100 µM |  |  |  |  | 
13 | CSc1nc2c(c(=O)n1C)N=C(c1ccc([N+](=O)[O-])cc1)CC(c1ccccc1)N2 (configuration not stated) | > 100 | > 100 µM | > 100 µM | > 100 µM | > 100 µM | > 100 µM | > 100 µM | 65.9 µM | > 100 µM | > 100 | > 100 µM |  |  |  |  | 
14 | CCOC(=O)c1nc2cc(C(F)(F)F)ccc2nc1Nc1ccc(C(=O)OC)s1 | > 100 | > 100 µM | 84.8 µM | 66.8 µM | > 100 µM | > 100 µM | > 100 µM | > 100 µM | > 100 µM | > 100 | 44.5 µM |  |  |  |  | 
15 | COc1ccc(N=NC(=O)NC(CC(C)C)C(=O)NCC(=O)O)cc1 (configuration not stated) | > 100 | > 100 µM | > 100 µM | > 100 µM | > 100 µM | > 29.1 µM | > 100 µM | > 100 µM | > 100 µM | > 100 | 24.5 µM |  |  |  |  | 
16 | COc1ccc(COC(=O)NCC(=O)NC(C)C(=O)NC(Cc2ccccc2)C(=O)OCc2ccccc2)cc1 (configuration not stated) | > 100 | 41.2 µM and 95.1 µM | 73.1 µM and 36 µM | 40.2 µM and > 100 µM | 60.9 µM and 89.2 µM | > 100 µM and 52.6 µM | 39.5 µM and 34.8 µM | 10.7 µM and 37.8 µM | 37.6 µM and 92.3 µM | > 100 | 80.8 µM and 52.9 µM | 18.8 µM and > 100 µM | 21.1 µM and 44.6 µM | 3.12 µM and 17.7 µM | 36.3 µM and > 100 µM | 

Row | Compound | TGI [1] [µM] | TGI [2] | TGI [3] | TGI [4] | TGI [5] | TGI [6] | TGI [7] | TGI [8] | TGI [9] | TGI [10] [µM] | TGI [11] | GI50 [4] | GI50 [5] | GI50 [8] | GI50 [10] | GI50 [1] [µM]
17 | O=Cc1cc(C(=O)OCc2ccccc2)n(S(=O)(=O)c2ccccc2)c1 | 25.7 | > 100 µM | > 100 µM | 31.6 µM | 82.1 µM | > 100 µM | 30.2 µM | 63 µM | > 100 µM | 37.6 | 55.1 µM |  |  |  |  | 
18 | [B-][P+](CC[P+]1([B-])[C@@H](C)[C@@H](O)[C@H](O)[C@@H]1C)(c1ccccc1)c1ccccc1OC (some centres not stated) | 35.3 | 31.7 µM | 60.8 µM | 28.1 µM | 28.3 µM | 70.8 µM | 32.7 µM | 54 µM | 24.4 µM | 32 | 32.6 µM |  |  |  |  | 
19 | CC(C)CC(N)C(=O)Nc1ccc2ccccc2c1 (configuration not stated) | > 100 | 54.5 µM | > 100 µM | > 100 µM | > 100 µM | > 100 µM | > 100 µM | > 100 µM | > 100 µM | > 100 | > 100 µM |  |  |  |  | 
20 | C=CCOC(=O)C1=C(C)NC2=N[C@H](CCCCCCCCC)C[C@@H]3CCC1N23 (some centres not stated) | 36 | 45.9 µM | 39.3 µM | 35.6 µM | 83.5 µM | > 100 µM | 53.6 µM | 69.4 µM | 35.7 µM | 48.2 | 50.9 µM |  |  |  |  | 
21 | Cc1ccc2c(=O)cc(-c3ccc(C)s3)[nH]c2n1 | > 100 | > 100 µM | > 100 µM | > 78.1 µM | > 100 µM | > 100 µM |  | 0.607 µM | 53 µM | > 100 | 2.29 µM |  |  |  |  | 
22 | CC(C)=CCC[C@@H](C)C1=C(O)C(Nc2ccccc2Cl)=C(C)C(=O)C1=O | > 50.9 | > 75 µM | > 52 µM | 36 µM | > 52.3 µM | > 75 µM | > 75 µM | 4.16 µM | 29.3 µM | > 75 | 21.7 µM |  |  |  |  | 
23 | CCCCc1ccc(Nc2nc(OC)c3ncn(C4CC(O)C(CO)O4)c3n2)cc1 (configuration not stated) | 29.8 | 35.9 µM | 30.9 µM | 33.8 µM | 36.1 µM | > 100 µM |  | 4.16 µM | 42.7 µM | > 100 | 28.4 µM |  |  |  |  | 
24 | CC(=O)NC(NCCN)(c1ccccc1)c1ccccc1 | > 100 | > 100 µM | > 100 µM |  | > 100 µM | > 100 µM | > 100 µM | > 100 µM | > 100 µM | > 100 | > 100 µM |  |  |  |  | 
25 | O=C1Nc2nccnc2C(=O)N2CCC[C@@H]12 | > 100 | > 100 µM | > 100 µM | > 100 µM | > 100 µM | > 100 µM | > 100 µM | > 100 µM | > 100 µM | > 100 | > 100 µM |  |  |  |  | 
26 | CC(C)C(OC(=O)c1ccc(NCC2=CC(=O)C=CC2=O)cc1)C(C)C | 24.6 | 11.4 µM | 22.8 µM | 20.3 µM | 17.2 µM | 12.6 µM | 15 µM | 3.96 µM | 25.1 µM | 36.4 | 9.84 µM |  |  |  |  | 
27 | COc1ccccc1/C=C/C1=NN(c2cccc(S(=O)(=O)O)c2)C2(C1)C(Cl)C(=O)N2c1nc2ccccc2s1 (configuration not stated) | > 100 | > 100 µM | > 59.8 µM | > 100 µM | > 96.3 µM | > 100 µM | > 100 µM | 45.5 µM | > 100 µM | > 100 | > 100 µM |  |  |  |  | 
28 | Cc1ccc2c(=O)cc(-c3ccc4ccccc4c3)[nH]c2n1 | 87.9 | 93.2 µM | > 100 µM | 24.1 µM | 14.6 µM | 13 µM | > 100 µM | 4.18 µM | > 100 µM | > 100 | 5.55 µM |  |  |  |  | 4
29 | CCOC(=O)NC(Nc1ccc(F)cc1)(C(=O)OCC)C(F)(F)F (configuration not stated) | > 100 | > 100 µM | > 100 µM | > 100 µM | > 100 µM | > 100 µM | > 100 µM | > 100 µM | > 100 µM | > 100 | > 100 µM |  |  |  |  | 
30 | O=[N+]([O-])c1ccc(-n2nc3ccc4c(no[n+]4[O-])c3n2)cc1 | > 100 | > 100 µM | > 100 µM | > 100 µM | > 100 µM | > 100 µM | > 100 µM | > 100 µM | > 100 µM | > 100 | > 100 µM |  |  |  |  | 
31 | CC(C)=CCCC(C)CCOS(=O)C(F)(F)F (configuration not stated) | 30.3 | 20.5 µM | > 100 µM | 21.7 µM | 67.7 µM | > 100 µM | 34.6 µM | 9.14 µM | 18.9 µM | 47.8 | 20.2 µM |  |  |  |  | 
